From PubChem BioAssay (NCI)
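Step 1: Grow cells in 96-well plates. Step 2: Expose to compound for 48 hours at 5 concentrations. Step 3: Interpolate endpoints linearly; if unreached, use highest concentration. TGI denotes the concentration required for complete inhibition of growth.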

Key:
Assay in all cases: NCI anticancer screen, dose series, 48 h
K-562 leukemia = system: K-562 leukemia
NCI-H522 lung = system: NCI-H522 lung
OVCAR-3 ovarian = system: OVCAR-3 ovarian
UACC-62 melanoma = system: UACC-62 melanoma
CCRF-CEM leukemia = system: CCRF-CEM leukemia
RXF 393 renal = system: RXF 393 renal
DU-145 prostate = system: DU-145 prostate
RPMI-8226 leukemia = system: RPMI-8226 leukemia
SR leukemia = system: SR leukemia
SW-620 colon = system: SW-620 colon
OVCAR-5 ovarian = system: OVCAR-5 ovarian
UO-31 renal = system: UO-31 renal
A498 renal = system: A498 renal
M14 melanoma = system: M14 melanoma
SF-268 CNS = system: SF-268 CNS
HOP-62 NSCLC = system: HOP-62 NSCLC
UACC-257 melanoma = system: UACC-257 melanoma
MOLT-4 leukemia = system: MOLT-4 leukemia
HCC-2998 colon = system: HCC-2998 colon
DMS 273 small cell lung = system: DMS 273 small cell lung
SN12C renal = system: SN12C renal
SK-MEL-5 melanoma = system: SK-MEL-5 melanoma
OVCAR-8 ovarian = system: OVCAR-8 ovarian
SF-539 CNS = system: SF-539 CNS
MDA-MB-435 = system: MDA-MB-435
MCF7 breast = system: MCF7 breast
OVCAR-4 ovarian = system: OVCAR-4 ovarian
MALME-3M melanoma = system: MALME-3M melanoma
SNB-19 CNS = system: SNB-19 CNS
MDA-MB-231 breast = system: MDA-MB-231 breast
HT29 colon = system: HT29 colon
IGROV1 ovarian = system: IGROV1 ovarian
DMS 114 small cell lung = system: DMS 114 small cell lung
DLD-1 colon = system: DLD-1 colon
NCI-H23 lung = system: NCI-H23 lung
KM20L2 colon = system: KM20L2 colon
SF-295 CNS = system: SF-295 CNS
LOX IMVI melanoma = system: LOX IMVI melanoma
HCT-15 colon = system: HCT-15 colon
SK-OV-3 ovarian = system: SK-OV-3 ovarian
SNB-75 CNS = system: SNB-75 CNS
A549 NSCLC = system: A549 NSCLC
PC-3 prostate = system: PC-3 prostate
SK-MEL-28 melanoma = system: SK-MEL-28 melanoma
CAKI-1 renal = system: CAKI-1 renal
HS 578T breast = system: HS 578T breast
SK-MEL-2 melanoma = system: SK-MEL-2 melanoma
T-47D breast = system: T-47D breast
NCI-H226 lung = system: NCI-H226 lung
KM12 colon = system: KM12 colon
HOP-92 NSCLC = system: HOP-92 NSCLC
COLO 205 colon = system: COLO 205 colon
ACHN renal = system: ACHN renal
786-0 renal = system: 786-0 renal
TK-10 renal = system: TK-10 renal
NCI/ADR-RES ovarian = system: NCI/ADR-RES ovarian
U251 CNS = system: U251 CNS
HCT-116 colon = system: HCT-116 colon
EKVX NSCLC = system: EKVX NSCLC
HL-60(TB) leukemia = system: HL-60(TB) leukemia
NCI-H460 lung = system: NCI-H460 lung
HOP-18 NSCLC = system: HOP-18 NSCLC
XF 498 CNS = system: XF 498 CNS
SNB-78 CNS = system: SNB-78 CNS
MDA-N = system: MDA-N
M19-MEL melanoma = system: M19-MEL melanoma
LXFL 529 NSCLC = system: LXFL 529 NSCLC

COC1=C(NC(C)=O)C(=O)c2nc3n(c2C1=O)CCC3
TGI (K-562 leukemia): > 65.1 µM | TGI (NCI-H522 lung): 40.1 µM | TGI (OVCAR-3 ovarian): 30.3 µM | TGI (UACC-62 melanoma): 32.4 µM | TGI (CCRF-CEM leukemia): 14.1 µM | TGI (RXF 393 renal): 31.7 µM | TGI (DU-145 prostate): 35.8 µM | TGI (RPMI-8226 leukemia): > 79.2 µM | TGI (SR leukemia): > 86.2 µM | TGI (SW-620 colon): 42.4 µM | TGI (OVCAR-5 ovarian): 34.6 µM | TGI (UO-31 renal): 47.1 µM | TGI (A498 renal): 50.2 µM | TGI (M14 melanoma): 32.8 µM | TGI (SF-268 CNS): 33.2 µM | TGI (HOP-62 NSCLC): 39.9 µM | TGI (UACC-257 melanoma): 30.4 µM | TGI (MOLT-4 leukemia): > 66.8 µM | TGI (HCC-2998 colon): 65.8 µM | TGI (DMS 273 small cell lung): 34.6 µM | TGI (SN12C renal): 32.3 µM | TGI (SK-MEL-5 melanoma): 31.5 µM | TGI (OVCAR-8 ovarian): 33.5 µM | TGI (SF-539 CNS): 32.9 µM | TGI (MDA-MB-435): 9.97 µM | TGI (MCF7 breast): 47.1 µM | TGI (OVCAR-4 ovarian): 30.7 µM | TGI (MALME-3M melanoma): 34.8 µM | TGI (SNB-19 CNS): 67.6 µM | TGI (MDA-MB-231 breast): 27.1 µM | TGI (HT29 colon): 66.2 µM | TGI (IGROV1 ovarian): 35.6 µM | TGI (DMS 114 small cell lung): 25 µM | TGI (DLD-1 colon): 29.3 µM | TGI (NCI-H23 lung): 39 µM | TGI (KM20L2 colon): > 100 µM | TGI (SF-295 CNS): 40.3 µM | TGI (LOX IMVI melanoma): 31.8 µM | TGI (HCT-15 colon): 53.4 µM | TGI (SK-OV-3 ovarian): > 100 µM | TGI (SNB-75 CNS): 41.2 µM | TGI (A549 NSCLC): > 69.9 µM | TGI (PC-3 prostate): > 100 µM | TGI (SK-MEL-28 melanoma): 32.9 µM | TGI (CAKI-1 renal): 32.8 µM | TGI (HS 578T breast): 82.8 µM | TGI (SK-MEL-2 melanoma): 32.7 µM | TGI (T-47D breast): 72.7 µM | TGI (NCI-H226 lung): 49.4 µM | TGI (KM12 colon): > 57.8 µM | TGI (HOP-92 NSCLC): 26.2 µM | TGI (COLO 205 colon): 38.6 µM | TGI (ACHN renal): 40.7 µM | TGI (786-0 renal): 36.4 µM | TGI (TK-10 renal): > 66.6 µM | TGI (NCI/ADR-RES ovarian): 41.1 µM | TGI (U251 CNS): > 59.9 µM | TGI (HCT-116 colon): 29.4 µM | TGI (EKVX NSCLC): 38.9 µM | TGI (HL-60(TB) leukemia): > 30.4 µM | TGI (NCI-H460 lung): > 76 µM | TGI (HOP-18 NSCLC): 39.1 µM | TGI (XF 498 CNS): 33.6 µM | TGI (SNB-78 CNS): 28.9 µM | TGI (MDA-N): 6.84 µM

CCOC(=O)C(=C=Cc1cccs1)C(=O)c1ccccc1
TGI (K-562 leukemia): > 100 µM | TGI (NCI-H522 lung): 28.3 µM | TGI (UACC-62 melanoma): 30.3 µM | TGI (CCRF-CEM leukemia): > 100 µM | TGI (RPMI-8226 leukemia): 44.5 µM | TGI (SR leukemia): 49 µM | TGI (SW-620 colon): 31.9 µM | TGI (OVCAR-5 ovarian): 28.5 µM | TGI (UO-31 renal): 27.3 µM | TGI (A498 renal): 35.5 µM | TGI (M14 melanoma): 28.2 µM | TGI (SF-268 CNS): 33.2 µM | TGI (HOP-62 NSCLC): 33.9 µM | TGI (UACC-257 melanoma): 25.5 µM | TGI (MOLT-4 leukemia): 48.5 µM | TGI (HCC-2998 colon): 31.2 µM | TGI (DMS 273 small cell lung): 31.3 µM | TGI (SN12C renal): 29.3 µM | TGI (SK-MEL-5 melanoma): 10.5 µM | TGI (OVCAR-8 ovarian): 29.3 µM | TGI (SF-539 CNS): 30.6 µM | TGI (OVCAR-4 ovarian): 39.4 µM | TGI (MALME-3M melanoma): 29.3 µM | TGI (M19-MEL melanoma): 32.1 µM | TGI (HT29 colon): 34.5 µM | TGI (IGROV1 ovarian): 34.6 µM | TGI (DLD-1 colon): 27.8 µM | TGI (NCI-H23 lung): 28.8 µM | TGI (SF-295 CNS): 31.9 µM | TGI (LOX IMVI melanoma): 24.9 µM | TGI (HCT-15 colon): 30.1 µM | TGI (SK-OV-3 ovarian): 62.8 µM | TGI (SNB-75 CNS): 29.8 µM | TGI (LXFL 529 NSCLC): 28.4 µM | TGI (A549 NSCLC): 45.5 µM | TGI (SK-MEL-28 melanoma): 28 µM | TGI (SK-MEL-2 melanoma): 33.4 µM | TGI (NCI-H226 lung): 32.7 µM | TGI (KM12 colon): 24.7 µM | TGI (HOP-92 NSCLC): 19.1 µM | TGI (COLO 205 colon): 31.4 µM | TGI (ACHN renal): 33.3 µM | TGI (786-0 renal): 29.5 µM | TGI (TK-10 renal): 28.5 µM | TGI (U251 CNS): 31.3 µM | TGI (HCT-116 colon): 27.7 µM | TGI (EKVX NSCLC): 31 µM | TGI (HL-60(TB) leukemia): 80.9 µM | TGI (NCI-H460 lung): 46 µM | TGI (HOP-18 NSCLC): 34 µM | TGI (XF 498 CNS): 32.6 µM | TGI (SNB-78 CNS): 47.5 µM
